From PubChem BioAssay AID1963846 (Molecular Pharmacology Branch, DTP, NCI, 2024)

System: 454973-116-R2-J3-PDC complex spheroid viability
Assay: Anticancer human tumor 454973-116-R2-J3-PDC patient-derived pancreatic carcinoma cell line growth inhibition [POLQ]
Details: for IC50: curve of first compound; for viability, T/C: stronger effect = lower value
Procedure: Multicellular complex tumor spheroid response to Polymerase (POL) inhibitors (novobiocin, ART-558, RP6685) in combination with a variety of drugs and investigational agents in selected tumor cell lines
The POL inhibitors (novobiocin, ART-558, and RP6685) were evaluated both individually and in combination with standard of care and investigational anticancer small molecules within a complex spheroid model of solid tumors. . Complex spheroids include a stromal component modeled by human endothelial cells (HUVEC) and fibroblasts modeled by human mesenchymal stem cells (MSCs). The concentration ranges selected for each drug and investigational agent were based upon clinically achievable concentrations if the clinical Cmax of the agent was known.
Compounds. The drugs and investigational agents: novobiocin (NSC847541), ART-558 (NSC835418), RP-6685 (NSC848927), peposertib (NSC802822), ceralasertib (NSC780249), elimusertib (NSC800525), camonsertib (NSC841442), AZD-1390 (NSC803789), olaparib (NSC753686), talazoparib (NSC767125), rucaparib (NSC756644), sotorasib (NSC818433), MRTX-1133 (NSC836407), SN-38 (NSC673596), topotecan (NSC609699), epotoside (NSC141540), doxorubicin (NSC123127), gemcitabine (NSC613327), 5-fluorouracil (NSC19893), paclitaxel (NSC125973), vemurafenib (NSC761431), MSA-2 (NSC828583), SN-011 (NSC837082), adavosertib (NSC754352), prexasertib (NSC758257), carboplatin (NSC241240) and oxaliplatin (NSC266046), were obtained from the National Cancer Institute (NCI) Developmental Therapeutics Program Chemical Repository (21). The FDA-approved anticancer drug set is available from the Developmental Therapeutics Program at https://dtp.cancer.gov/organization/dscb/obtaining/. […] The stock solutions were prepared in dimethyl sulfoxide (DMSO, Sigma-Aldrich, St. Louis, MO, cat. D2650), except for the platinum compounds which were prepared in saline (Quality Biological, Gaithersburg, MD, cat. 114-055-101), at 800-fold the tested concentration and stored at -70 degrees C prior to their use. All drugs and investigational agents were tested over a range starting from a high concentration at or near the clinical Cmax and decreasing in half-log increments. If the clinical Cmax for an agent had not been determined, the highest concentration tested was 10 microM, except for SN-38, which was tested at a high concentration of 1 microM.
Cell Culture. All cells were maintained in an incubator at 37 degrees C and 5% CO2 with 95% humidity. The PDC lines were cultured according to standard operating procedures established by the NCI PDMR (https://pdmr.cancer.gov). Table 3 of the manuscript, lists the cell lines along with the number of the three cell types plated to form the mct-spheroids and media for tumor cell growth. After thawing, all PDC lines, except 997537-175-T-J1-PDC and 415267-285-R-J2-PDC, were cultured in Matrigel-coated flasks prepared with a working solution of 1X Ham's F-12 nutrient mix, without supplementation (Thermo Fisher Scientific, cat. 11765054), 100 U/mL penicillin-streptomycin (Thermo Fisher Scientific, cat. 15140122), and 2.5% Matrigel (Corning Inc., Corning, NY, cat. 354248) for the first three passages. The two PDC lines 997537-175-T-J1-PDC and 415267-285-R-J2-PDC were cultured on uncoated flasks. The 857933-349-R-J2-PDC line was cultured in 6C/Colon 1B media containing advanced DMEM/F-12 (Thermo Fisher Scientific, cat. 12634028), 10 mM HEPES (Thermo Fisher Scientific, cat. 15630080), 1X GlutaMAX supplement (Thermo Fisher Scientific, cat. 35050061), 0.1 mg/mL primocin (InvivoGen, San Diego, CA, cat. ant-pm-2), 10% defined fetal bovine serum, heat inactivated (HyClone Laboratories Inc., Logan, UT, cat. SH30070.03HI), 50% L-WRN conditioned media (ATCC, cat. CRL-3276), 1.25 mM N-Acetyl-L-cysteine (Sigma-Aldrich, cat. A9165), 10 mM nicotinamide (Sigma-Aldrich, cat. N0636), 1X B-27 supplement (Thermo Fisher Scientific, cat. 17504044), 1X N-2 supplement (Thermo Fisher Scientific, cat. […]

[1] = second compound 0.0316 µM, first compound 0.0316 µM
[2] = second compound 0.0316 µM, first compound 0.1 µM
[3] = second compound 0.1 µM, first compound 0.0316 µM
[4] = second compound 0.1 µM, first compound 0.1 µM
[5] = second compound 0.316 µM, first compound 0.0316 µM
[6] = second compound 0.316 µM, first compound 0.1 µM
[7] = second compound 1 µM, first compound 0.0316 µM
[8] = second compound 1 µM, first compound 0.1 µM
[9] = second compound 3.16 µM, first compound 0.0316 µM
[10] = second compound 3.16 µM, first compound 0.1 µM
[11] = second compound 10 µM, first compound 0.0316 µM
[12] = second compound 10 µM, first compound 0.1 µM
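Also: spheroids exposed to drugs for seven days before measurement.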
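For viability, T/C in this document: percent viability relative to DMSO vehicle control wells taken as 100%.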

CCCS(=O)(=O)Nc1ccc(F)c(C(=O)c2c[nH]c3ncc(-c4ccc(Cl)cc4)cc23)c1F + COC1C(OC(N)=O)C(O)C(Oc2ccc3c(O)c(NC(=O)c4ccc(O)c(CC=C(C)C)c4)c(=O)oc3c2C)OC1(C)C
IC50 (second compound 0.0316 µM): 9.52 µM | IC50 (second compound 0.1 µM): > 10 µM | IC50 (second compound 0.316 µM): > 10 µM | IC50 (second compound 1 µM): > 10 µM | IC50 (second compound 3.16 µM): > 10 µM | IC50 (second compound 10 µM): > 10 µM | viability, T/C [1]: 98.9% | viability, T/C [2]: 106% | viability, T/C (second compound 0.0316 µM, first compound 0.316 µM): 101% | viability, T/C (second compound 0.0316 µM, first compound 1 µM): 114% | viability, T/C (second compound 0.0316 µM, first compound 3.16 µM): 110% | viability, T/C (second compound 0.0316 µM, first compound 10 µM): 47.5% | viability, T/C [3]: 98.9% | viability, T/C [4]: 118% | viability, T/C (second compound 0.1 µM, first compound 0.316 µM): 103% | viability, T/C (second compound 0.1 µM, first compound 1 µM): 113% | viability, T/C (second compound 0.1 µM, first compound 3.16 µM): 109% | viability, T/C (second compound 0.1 µM, first compound 10 µM): 54.8% | viability, T/C [5]: 107% | viability, T/C [6]: 114% | viability, T/C (second compound 0.316 µM, first compound 0.316 µM): 103% | viability, T/C (second compound 0.316 µM, first compound 1 µM): 110% | viability, T/C (second compound 0.316 µM, first compound 3.16 µM): 103% | viability, T/C (second compound 0.316 µM, first compound 10 µM): 57.3% | viability, T/C [7]: 120% | viability, T/C [8]: 107% | viability, T/C (second compound 1 µM, first compound 0.316 µM): 109% | viability, T/C (second compound 1 µM, first compound 1 µM): 117% | viability, T/C (second compound 1 µM, first compound 3.16 µM): 108% | viability, T/C (second compound 1 µM, first compound 10 µM): 57.3% | viability, T/C [9]: 112% | viability, T/C [10]: 109% | viability, T/C (second compound 3.16 µM, first compound 0.316 µM): 103% | viability, T/C (second compound 3.16 µM, first compound 1 µM): 106% | viability, T/C (second compound 3.16 µM, first compound 3.16 µM): 105% | viability, T/C (second compound 3.16 µM, first compound 10 µM): 62.8% | viability, T/C [11]: 114% | viability, T/C [12]: 104% | viability, T/C (second compound 10 µM, first compound 0.316 µM): 97.2% | viability, T/C (second compound 10 µM, first compound 1 µM): 106% | viability, T/C (second compound 10 µM, first compound 3.16 µM): 109% | viability, T/C (second compound 10 µM, first compound 10 µM): 65.5%

Cn1ncnc1[C@H]1c2n[nH]c(=O)c3cc(F)cc(c23)N[C@@H]1c1ccc(F)cc1 + COC1C(OC(N)=O)C(O)C(Oc2ccc3c(O)c(NC(=O)c4ccc(O)c(CC=C(C)C)c4)c(=O)oc3c2C)OC1(C)C
IC50 (second compound 0.0316 µM): > 0.1 µM | IC50 (second compound 0.1 µM): > 0.1 µM | IC50 (second compound 0.316 µM): > 0.1 µM | IC50 (second compound 1 µM): > 0.1 µM | IC50 (second compound 3.16 µM): > 0.1 µM | IC50 (second compound 10 µM): > 0.1 µM | viability, T/C (second compound 0.0316 µM, first compound 0.000316 µM): 100% | viability, T/C (second compound 0.0316 µM, first compound 0.001 µM): 111% | viability, T/C (second compound 0.0316 µM, first compound 0.00316 µM): 102% | viability, T/C (second compound 0.0316 µM, first compound 0.01 µM): 109% | viability, T/C [1]: 95.1% | viability, T/C [2]: 83.4% | viability, T/C (second compound 0.1 µM, first compound 0.000316 µM): 102% | viability, T/C (second compound 0.1 µM, first compound 0.001 µM): 112% | viability, T/C (second compound 0.1 µM, first compound 0.00316 µM): 105% | viability, T/C (second compound 0.1 µM, first compound 0.01 µM): 104% | viability, T/C [3]: 98.5% | viability, T/C [4]: 90.5% | viability, T/C (second compound 0.316 µM, first compound 0.000316 µM): 112% | viability, T/C (second compound 0.316 µM, first compound 0.001 µM): 114% | viability, T/C (second compound 0.316 µM, first compound 0.00316 µM): 105% | viability, T/C (second compound 0.316 µM, first compound 0.01 µM): 100% | viability, T/C [5]: 93.5% | viability, T/C [6]: 83.3% | viability, T/C (second compound 1 µM, first compound 0.000316 µM): 109% | viability, T/C (second compound 1 µM, first compound 0.001 µM): 102% | viability, T/C (second compound 1 µM, first compound 0.00316 µM): 107% | viability, T/C (second compound 1 µM, first compound 0.01 µM): 102% | viability, T/C [7]: 93.1% | viability, T/C [8]: 82.5% | viability, T/C (second compound 3.16 µM, first compound 0.000316 µM): 107% | viability, T/C (second compound 3.16 µM, first compound 0.001 µM): 111% | viability, T/C (second compound 3.16 µM, first compound 0.00316 µM): 104% | viability, T/C (second compound 3.16 µM, first compound 0.01 µM): 100% | viability, T/C [9]: 104% | viability, T/C [10]: 88.9% | viability, T/C (second compound 10 µM, first compound 0.000316 µM): 101% | viability, T/C (second compound 10 µM, first compound 0.001 µM): 96% | viability, T/C (second compound 10 µM, first compound 0.00316 µM): 98.3% | viability, T/C (second compound 10 µM, first compound 0.01 µM): 103% | viability, T/C [11]: 87.2% | viability, T/C [12]: 78.1%
